Data as given in PubChem BioAssay AID179 (DTP/NCI, 2004).
Active and inactive are the calls of the source.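 Rule for the calls: active = compounds giving half or more protection of infected cells from virus-caused growth loss, again on retest; inactive = the rest.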

System: CEM cells HIV-1 protection, formazan growth assay
Test: NCI AIDS Antiviral Assay
Details: for IC50: measured here: growth of uninfected CEM cells
How it was run: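 Protection of CEM cells against HIV-1 measured as cell growth via soluble formazan read-out, with five concentrations tested on both infected and uninfected cells; failure to protect may reflect toxicity.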

Row | SMILES | outcome | EC50 [µM] | IC50 [µM]
1 | O=c1ncccn1C1OC(CO)C(O)C1F (stereo not given) | inactive |  | 
2 | COc1cc2c3c(c1)[nH]c(=S)n3C(=O)C(C)S2 (stereo not given) |  | > 200 | 141
3 | O=c1/c(=C/c2ccc3c(c2)OCO3)sc2nnc(Cc3ccccc3)n12 |  | > 20 | > 20
4 | COc1ccc(C(=O)C(c2ccc(OC)cc2)C2(O)C(=O)Nc3c(C)cc(Cl)cc32)cc1 (stereo not given) |  | > 79.4 | > 79.4
5 | CC(C)(C)C(=O)/C=C/c1ccc(-c2ccccc2)cc1 |  | > 19.5 | > 19.5
6 | O=C(Cc1ccccc1)NN1C(=O)C(Cl)C1c1cc(Br)cc(Br)c1O (stereo not given) |  | > 20.4 | 11.5
7 | CC1CCC2CC(=O)OC([C@@H]3C(=O)O[C@@H](C4=CCCC4)C4C(C)CCC43)C12 (stereo not given in full) |  | > 10 | > 10
8 | COC(=O)c1ccccc1C1CN=NC12Cc1c(C)cc(C)cc1C2=O (stereo not given) |  | > 174 | 28.2
9 | CC(=O)Nc1ccc(S(=O)(=O)N/N=C/C(=O)O)cc1 |  | > 200 | > 200
10 | O=C1c2cccc3cc([N+](=O)[O-])cc(c23)C(=O)N1Cc1ccccc1 |  | > 200 | 5.75
11 | C=C1C(OO)O[C@@H]2O[C@@]3(C)CC[C@H]4[C@H](C)CC[C@@H]1[C@@]24O3 (stereo not given in full) |  | > 200 | 27.5
12 | CO[C@H](C(=O)[C@@H](O)[C@@H](C)O)[C@@H]1Cc2cc3cc(OC4CC(OC5CC(O)C(O)C(C)O5)C(O)C(C)O4)c(C)c(O)c3c(O)c2C(=O)[C@H]1OC1CC(OC2CC(OC3CC(C)(O)C(O)C(C)O3)C(O)C(C)O2)C(O)C(C)O1 (stereo not given in full) |  | > 0.0302 | > 0.0302
13 | NC(=S)N/N=C/c1cc(=O)c2cc(Cl)ccc2o1 |  | > 66.1 | > 66.1
14 | C=CCSCCCC#Cc1ccccc1C(=O)OC |  | > 200 | 151
15 | O=S(=O)(O)ON=C1c2ccccc2-c2ccccc21 |  | > 200 | 195
16 | Cc1cn(C2OC(CO)C(CC(N)=O)C2O)c(=O)[nH]c1=O (stereo not given) |  | > 200 | > 200
17 | CCCC(C)N(CC(=O)Nc1ccc(S(N)(=O)=O)cc1)C(C)=O (stereo not given) |  | > 200 | > 200
18 | O=C(O)Cn1cnc2c(=O)[nH]c(Nc3ccccc3)nc21 |  | > 200 | > 200
19 | NC(=O)CCC(N=c1c2ccccc2n(O)c2ccccc12)C(=O)O (stereo not given) | inactive |  | 
20 | CCN(CC)CCn1ccc(=O)c2cc3c(=O)ccn(CCN(CC)CC)c3c(C)c21 |  | > 17 | 0.676
21 | Nc1ccc2cc(S(=O)(=O)O)c(N=Nc3ccc(-c4ccc(N=Nc5c(S(=O)(=O)O)cc6cc(S(=O)(=O)O)cc(N)c6c5O)cc4)cc3)c(O)c2c1 | inactive |  | 
22 | Cc1ccc(NC(=O)C(=O)C(C2C(C)CC(=O)C2CC(=O)O)[N+](=O)[O-])cc1 (stereo not given) | inactive |  | 

Row | SMILES | outcome | EC50 [µM] | IC50 [µM]
23 | CCc1cccc(C(C)(C)C)c1NC(=S)/N=C/C(C(=O)c1ccccc1)=C(\O)c1ccccc1 |  | > 200 | 51.3
24 | O=S1(=O)c2ccc(cc2)N=CC=Nc2ccc1cc2 |  | > 33.1 | > 33.1
25 | COC1CC2C3/C(=N/Nc4ccc([N+](=O)[O-])cc4[N+](=O)[O-])CCC2(C)C3C1 (stereo not given) | inactive |  | 
26 | CN1c2ccccc2C2=C(C(=O)CCS2)S1(=O)=O |  | > 35.5 | > 35.5
27 | CC(=O)OC[C@@H]1[C@H]2CC(=O)O[C@H]2C[C@H]1OC(C)=O | inactive |  | 
28 | O=S(=O)(C/C(=N\O)c1ccccc1)c1ccccc1 |  | > 324 | 182
29 | CN1CCN(C2=C(Cl)C3(OCCS3)C(F)(F)C2(F)F)CC1 (stereo not given) |  | > 132 | 45.7
30 | COc1cc(C2c3cc4c(cc3OC(NN)C2C)OCO4)cc(OC)c1O (stereo not given) | inactive |  | 
31 | O=c1c(SCc2ccc(Br)cc2)c(SCc2ccc(Br)cc2)cnn1-c1ccccc1 |  | > 12.6 | 6.46
32 | COc1ccc(OC2OC(CO)C(O)C(O)C2O)cc1 (stereo not given) |  | > 200 | > 200
33 | O=C(NC(=O)c1ccccc1)NC(=O)c1ccccc1 |  | > 135 | > 135
34 | CCOC(=O)/C(=C/c1ccc(OC)c(OC)c1)C(=O)c1ccccc1 |  | > 75.9 | 40.7
35 | N#CC1(C#N)C(c2ccc(C3C(C#N)(C#N)C3(C#N)C#N)cc2)C1(C#N)C#N | inactive |  | 
36 | C=C=C(C)C(=O)N(C(C)C)C(C)C |  | > 200 | > 200
37 | O=c1oc(=O)c2cc3c(=O)oc(=O)c3cc12 |  | > 200 | > 200
38 | O=C(CCCCC(=O)OCC1COCO1)OCC1COCO1 (stereo not given) |  | > 200 | > 200
39 | CCCCN1C(=O)c2cc(=O)[nH]c(O)c2C1C (stereo not given) |  | > 1050 | 676
40 | O=c1cn[nH]c2nc3ccccc3n12 |  | > 200 | > 200
41 | CCN(CC)C(=S)SS(=O)(=O)c1ccc(NC(C)=O)cc1 |  | > 200 | 11
42 | CCCCCCOC(=O)CC1CC(C(C)=O)C1(C)C (stereo not given) |  | > 200 | > 200
43 | COP(=O)(CC(=O)CCCCCOC1CCCCO1)OC (stereo not given) | inactive |  | 
44 | CCC(O)C1Cc2c(C)cc3c(c2O1)C(=O)c1ccccc1C3=O (stereo not given) | inactive |  | 

Row | SMILES | outcome | EC50 [µM] | IC50 [µM]
45 | CC(C)=CCCC1(C)C=Cc2c(cc(O)c3c(=O)c4cccc(O)c4oc23)O1 (stereo not given) |  | > 200 | 33.9
46 | FC(F)(Oc1ccc2ccccc2c1)c1nc2ccccc2o1 |  | > 200 | 25.7
47 | CCC1=NC(C(F)(F)F)(C(F)(F)F)N=C(N2CCOCC2)O1 |  | > 200 | > 200
48 | Cc1ccc([P+](Cc2ccccc2)(c2ccc(C)cc2)c2ccc(C)cc2)cc1 |  | > 200 | 0.851
49 | CC1(C)COC(c2cccnc2/C=N/O)=N1 |  | > 1150 | > 200
50 | CCCCCCCCCCCC(=O)c1c(O)cc(C)oc1=O |  | > 100 | 5.37
51 | NC(=S)NN=C(C1CC1)C1CC1 |  | > 200 | > 200
52 | Cc1cc(C)nc(NS(=O)(=O)c2ccc(Nc3c4ccccc4nc4c(C(=O)N5CCN(CCOS(C)(=O)=O)CC5)cccc34)cc2)n1 |  | > 42.7 | > 42.7
53 | O=c1[nH]c(=O)n(COCc2ccccc2)c2ccc([N+](=O)[O-])cc12 |  | > 200 | > 200
54 | CCC1CN2CCc3cc(OC)c(OC)cc3C2CC1CC1c2cc(OC)c(OC)cc2CCN1C(=O)CNC(=O)OC(C)(C)C (stereo not given) | inactive |  | 
55 | Cc1[nH]n(C(=O)c2ccccc2O)c(=O)c1/C=C1\C(=O)C=Cc2ccccc21 |  | > 19.5 | 0.398
56 | CCCCCCCCCCCCCCCCCCOP1(=O)OCCO1 |  | > 50.1 | > 50.1
57 | CCOC(=O)C(Cl)(NC(=O)OCc1ccccc1)C(F)(F)F (stereo not given) | inactive |  | 
58 | C=CCNC(=O)N(CCCCC(NC(C)=O)C(=O)NCc1ccccc1)Cc1ccccc1 (stereo not given) |  | > 550 | 372
59 | CCOC(=O)C1C(C)C2(C#N)C(=N)OC1(C)C2(C#N)C#N (stereo not given) |  | > 200 | 83.2
60 | [O-]c1c(-c2ccccc2)[se]c(-c2ccccc2)[n+]1-c1ccccc1 | inactive |  | 
61 | CCOC(=O)C(CC#Cc1ccc(C#CCC(NC(C)=O)C(=O)OCC)cc1)NC(C)=O (stereo not given) |  | > 200 | > 200
62 | CN(c1ccc(C(=O)c2ccc(N(C)S(C)(=O)=O)cc2)cc1)S(C)(=O)=O |  | > 25.1 | > 25.1
63 | CN1CCN=C1c1ccc(NC(=O)Nc2ccc(NC(=O)Nc3ccc(C4=NCCN4C)cc3)cc2)cc1 |  | > 200 | 38.9
64 | CSC1=Nc2ccccc2N(C)c2c1c(-c1ccccc1)nn2C |  | > 200 | 43.7
65 | NC(=O)Nc1c([N+](=O)[O-])cc(C(F)(F)F)cc1[N+](=O)[O-] | inactive |  | 
66 | Cc1ccc(S(=O)(=O)c2ccsc2NC(=O)c2ccccc2)cc1 |  | > 100 | > 100

Row | SMILES | outcome | EC50 [µM] | IC50 [µM]
67 | COC(=O)C1(F)C(=O)NC(=O)NC1O (stereo not given) |  | > 200 | 91.2
68 | O=C(O)[C@@H]1CSC(c2ccccc2Cl)N1 (stereo not given in full) |  | > 200 | 141
69 | Brc1cccc(C2ON=C(c3ccccc3)N2C23CC4CC(CC(C4)C2)C3)c1 (stereo not given) |  | > 200 | > 200
70 | COc1ccccc1N1C(=O)C2C3c4ccccc4C(OC(C)=O)(c4ccccc43)C2C1=O (stereo not given) |  | > 200 | > 200
71 | CC1(C)CCC[C@]2(C)[C@H]3[C@H](C#N)c4cc(O)c(O)cc4O[C@@]3(C)CC[C@@H]12 |  | > 200 | 1.41
72 | O=C1CC(=O)NC(=NN2C(=O)/C(=C/c3ccccc3)N=C2c2ccccc2)N1 |  | > 200 | > 200
73 | CCOC(=O)c1ccc(-n2[nH]c(=O)ccc2=O)cc1 |  | > 191 | > 191
74 | COc1nc2ccc(CNc3ccc(C(=O)O)cc3)cc2nc1OC |  | > 200 | > 200
75 | COc1ccc(Nc2c(C#N)c3n(c4ccccc24)c2ccccc2[n+]3C)cc1OC |  | > 200 | 3.09
76 | OC1C2C3CCC(C3)C2C(O)C2C3CCC(C3)C12 (stereo not given) |  | > 200 | > 200
77 | CSC(=Nc1cc2ccccc2c2ccccc12)NC#N |  | > 34.7 | 26.9
78 | C=CCCC1CCCCC/C1=N\N(C)C (stereo not given) |  | > 200 | > 200
79 | c1ccc(-c2nc3sc(-c4ccccn4)nc3s2)nc1 | inactive |  | 
80 | COc1cccc(N2N=C3c4ccccc4-n4c(nc5ccccc54)C3C2N)c1 (stereo not given) |  | > 200 | > 200
81 | CCOC(=O)c1ccc(N2N=NC3C4CC(C5CCCC54)C32)cc1 (stereo not given) |  | > 200 | > 200
82 | O=C(O)c1cscc1-c1cccc2ccccc12 |  | > 200 | 158
83 | COc1ccc2[nH]c3c(c2c1)C(=O)c1ccncc1C3=O |  | > 20 | 1.2
84 | Cc1ccc([N+](=O)[O-])c2c(NCCC[N+](C)(C)[O-])ccnc12 |  | > 200 | 28.8
85 | COc1ccc(NC(=O)/C(Cc2cc(=O)oc3cc(O)ccc23)=N\NC(C)(C)C)c(OC)c1 |  | > 30.2 | > 30.2
86 | COc1cc2c(cc1OC)-c1c3cc(O)ccc3nn[n+]1CC2 | inactive |  | 
87 | OCCN(CCO)c1ccc2c(-c3ccccc3)cc(N(CCO)CCO)nc2n1 |  | > 200 | 120
88 | Cc1oc2c(c1C)S(=O)(=O)C(C#N)=C(c1ccccc1)N2 |  | > 200 | > 200
